Common to all, as to assay: NCI-60 cell line screen, 48 h
Assay [1] deals with RXF 393 renal.
Assay [2] deals with NCI-H460 lung.
Assay [3] deals with SK-MEL-28 melanoma.
Assay [4] has as its system M14 melanoma.
Assay [5] deals with MALME-3M melanoma.
Assay [6] has as its system 786-0 renal.
Assay [7] concerns EKVX NSCLC.
Assay [8] concerns NCI-H226 lung.

Each structure is given as a SMILES string.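 1) Cells in 96-well plates. 2) Compound, 48 h, 5 concentrations. 3) Linear interpolation between surrounding doses. 4) Unreached endpoint = highest concentration. GI50 is the concentration that inhibits growth by half. TGI denotes the concentration required for complete inhibition of growth.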 Where only a bound is given, the exact number is not on record here.

With `CCOC(=O)c1c(-c2ccc(Cl)cc2)c(C#N)c(=S)n(C2OC(COC(C)=O)C(OC(C)=O)C(OC(C)=O)C2OC(C)=O)c1-c1ccccc1` (configuration not stated), the TGI in assay [1], in assay [2], in assay [3], in assay [4], in assay [5] and in assay [6] was over 100 µM in each case.
For `CN(C)c1ccc(C=C2C(=O)N(c3ccccc3)N(c3ccccc3)C2=O)cc1`, the TGI in assay [3], in assay [7], in assay [4], in assay [8], in assay [5] and in assay [6] was over 100 µM each time.
With `COc1cc(C2=NNC(=O)c3ccccc3N2c2nc(-c3cccs3)nc3ccc(Br)cc23)cc(OC)c1OC`, the TGI in assay [2] is 14.2 µM; in assay [3] it was 32.3 µM; in assay [7] it was 86.4 µM; in assay [4], 73.8 µM; in assay [8] it was over 100 µM; in assay [5], 59.1 µM. The TGI in assay [6] is over 100 µM.
With `COc1cc(C2c3cc4c(cc3OC(Nc3ccccc3)C2C)OCO4)cc(OC)c1O` (configuration not stated), the TGI is 19.7 µM in assay [1]; 28.4 µM in assay [3]; 60.7 µM in assay [4]; 39.8 µM in assay [8]; 21.6 µM in assay [5]; 21.7 µM in assay [6].
`C=C1C(=O)O[C@H]2[C@H]3O[C@@H](C[C@@H]12)[C@@]1(C)CC[C@H](O1)[C@H](C)CCC[C@H]3C`: the TGI was 5.24 µM in assay [1]; 3.7 µM in assay [2]; 3.1 µM in assay [3]; 2.84 µM in assay [7]; 3.87 µM in assay [8]; 3.24 µM in assay [5]. In addition, in assay [6], the TGI was found to be 2.63 µM.
Turning to `O=c1cc(NNc2cccc(F)c2)[nH]c(=O)[nH]1`, the TGI in assay [1] is 35.1 µM; in assay [2] it was over 100 µM; in assay [3] it was over 100 µM; in assay [4], 33.9 µM; in assay [8], over 100 µM; in assay [5], 34.9 µM. The same compound had a TGI in assay [6] of 30.1 µM.
In the case of `COc1ccc2c(c1)C/C(=C\c1cccc3ccccc13)C2=O`, the TGI in assay [1] was 22.5 µM; in assay [2] it was over 100 µM; in assay [3], over 100 µM; in assay [7] it was over 100 µM; in assay [4] it was over 100 µM; in assay [8] it was 59.7 µM. Besides, the TGI in assay [6] stood at 77.7 µM.
`O=C1Nc2ccccc2Cn2c1cc1oc(-c3ccccc3)cc12`: the TGI is 53 µM in assay [1]; over 100 µM in assay [2]; over 100 µM in assay [3]; over 100 µM in assay [7]; over 100 µM in assay [5]; 45.4 µM in assay [6].
Regarding `O=C(CCCCCCCCC(=O)N1C(=O)CC(=O)N(c2ccccc2)C1=S)N1C(=O)CC(=O)N(c2ccccc2)C1=S`, the TGI in assay [1], in assay [2], in assay [7], in assay [4], in assay [5] and in assay [6] was over 100 µM in each case.
As for `Nc1ccccc1.[C-]#[O+].[C-]#[O+].[C-]#[O+].[C-]#[O+].[C-]#[O+].[Cr]`, the GI50 in assay [1] is 3.22 µM; in assay [2], 5.64 µM; in assay [3] it was 4.52 µM; in assay [7], 9.33 µM; in assay [4], 3.44 µM; in assay [8], over 10 µM. Moreover, the GI50 in assay [5] was 4.72 µM. The TGI in assay [1], in assay [2], in assay [3], in assay [7], in assay [4] and in assay [8] was over 10 µM each time. In assay [5], this compound came in with a TGI of over 10 µM.
For `COC(=O)CCc1ccc2c(c1)C(=O)CC2`, the TGI in assay [1], in assay [2], in assay [3], in assay [7], in assay [4] and in assay [5] was over 100 µM throughout. Also, the TGI in assay [6] is over 100 µM.
For the compound `O=C1c2ccccc2C(=O)c2sc(Nc3ccccc3C(F)(F)F)nc21`, the TGI in assay [1] was 39 µM; in assay [2], 58.1 µM; in assay [3], 30.3 µM; in assay [7] it was 55.1 µM; in assay [4], 50.7 µM; in assay [5] it was 29.9 µM. For the same compound, the TGI in assay [6] is 41 µM.
As to `O=C(NC1CCCCC1)c1cc2ccccc2cc1O`, the TGI in assay [1] was 58.5 µM; in assay [2], 62.8 µM; in assay [3], over 100 µM; in assay [7], over 100 µM; in assay [4], 53.3 µM; in assay [8], 41 µM. Further, the TGI in assay [6] was 84.5 µM.
Turning to `CCCCCc1nnc(NS(=O)(=O)c2ccc(NC(=O)OCC(C)C)cc2)s1`, the TGI in assay [1] is over 100 µM; in assay [2] it was over 100 µM; in assay [3], 95.5 µM; in assay [7], 78.2 µM; in assay [4] it was over 100 µM; in assay [5], 94.6 µM. The compound also came in with a TGI in assay [6] of over 100 µM.
Take `COC(=O)[C@H]1NC(=O)CCSSC1(C)C`: the TGI in assay [1], in assay [3], in assay [7], in assay [4], in assay [8] and in assay [5] was over 100 µM throughout. The TGI in assay [6] was over 100 µM.
Regarding `CCCCCCNC(=O)CCC(NC(=O)c1ccc(N(C)Cc2cnc3nc(N)nc(N)c3n2)cc1)C(=O)NCCCCCC` (configuration not stated), the TGI in assay [1], in assay [2], in assay [3], in assay [7], in assay [4] and in assay [8] was over 100 µM throughout. The compound further came in with a TGI in assay [6] of over 100 µM.
In the case of `C[n+]1c(-c2ccc(/C=N/Nc3ccnc(N/N=C/c4ccc(-c5cn6ccsc6[n+]5C)cc4)n3)cc2)cn2ccsc21`, the TGI in assay [1] was 51.9 µM; in assay [2], 91.3 µM; in assay [7] it was 45.7 µM; in assay [4], 54.7 µM; in assay [8], 60.6 µM; in assay [5] it was over 100 µM. The compound further showed a TGI in assay [6] of 46.6 µM.
Regarding `O=C(CCCCCC(=O)N1CC(CCl)c2ccc([N+](=O)[O-])cc21)N1CC(CCl)c2ccc([N+](=O)[O-])cc21` (configuration not stated), the TGI in assay [1], in assay [2], in assay [7], in assay [4], in assay [8] and in assay [6] was over 100 µM in each case.
